# Earlier results, collected in article PMC7529705 (Biochemistry, 2020).
# “Also recorded” adds a separate entry of the source. Where no end group is shown, it is not given here. me2a = asymmetric dimethylation (Arg)
# Tested on: WDR5
# Conditions: previously reported
substance,measurement,value
"H3R2me2a: Histone H3 1–7aa peptide, asymmetrically dimethylated at Arg2 (AR(me2a)TKQTA; UniProt P68431 2-8, looked up, fragment)",Interaction with WDR5,not to interact; also recorded: does not interact
